Calls of active or inactive are those of the source.
Experiments:
[1] = molecular target: T1, Fatty acid synthase (Homo sapiens, UniProt P49327); test: inhibition of human FAS-TE enzyme activity – biochemical, endpoint fluorescence intensity, uHTS hits, dose response (AID 624327); type: functional;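 also: fluorescence from hydrolysis of an O-methyl fluorescein acyl ester substrate by the enzyme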
[2] = tested on: INS1; test: INS-1E survival protection against cytokine death – cell-based, luminescence, retest, dose response (AID 449756); type: functional; conditions: Rattus norvegicus;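 also: cell death triggered by IL-1 beta plus TNF-alpha plus IFN-gamma mixture; protective hits raise ATP signal compared with cytokine alone wells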
[3] = molecular target: T2, Caspase-3 (Homo sapiens, UniProt P42574); type: functional;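 also: Dose-response selectivity test against caspase-3 for candidate inhibitors of sentrin-specific proteases (SENPs)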
T2 sequence (P42574 whole entry): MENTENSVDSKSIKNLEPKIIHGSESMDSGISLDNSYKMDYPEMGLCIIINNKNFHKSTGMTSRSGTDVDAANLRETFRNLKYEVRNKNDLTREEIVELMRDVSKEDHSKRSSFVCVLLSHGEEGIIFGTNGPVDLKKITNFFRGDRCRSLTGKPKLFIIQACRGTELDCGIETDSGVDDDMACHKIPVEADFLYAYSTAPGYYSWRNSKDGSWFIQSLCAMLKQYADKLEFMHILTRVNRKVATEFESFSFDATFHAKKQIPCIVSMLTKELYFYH

[4] = MIN6 cell viability loss – mouse insulinoma, cytotoxicity control, dose response (AID 2122); type: functional;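 also: confirmatory high-throughput counterscreen run to flag cytotoxic compounds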
[5] = molecular target: T1, Fatty acid synthase; test: inhibition of human FAS-TE enzyme activity – biochemical, kinetic fluorescence intensity, dose response (AID 624326); type: functional;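 also: rate of fluorescence rise from hydrolysis of a fluorogenic O-methyl fluorescein ester substrate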
[6] = molecular target: T3, Sentrin-specific protease 7 (Homo sapiens, UniProt Q9BQF6); type: functional;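 also: Luminescence-based dose-response confirmation of ultra-high-throughput screening hits, measuring inhibition of SENP7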
T3 sequence (Q9BQF6 whole entry): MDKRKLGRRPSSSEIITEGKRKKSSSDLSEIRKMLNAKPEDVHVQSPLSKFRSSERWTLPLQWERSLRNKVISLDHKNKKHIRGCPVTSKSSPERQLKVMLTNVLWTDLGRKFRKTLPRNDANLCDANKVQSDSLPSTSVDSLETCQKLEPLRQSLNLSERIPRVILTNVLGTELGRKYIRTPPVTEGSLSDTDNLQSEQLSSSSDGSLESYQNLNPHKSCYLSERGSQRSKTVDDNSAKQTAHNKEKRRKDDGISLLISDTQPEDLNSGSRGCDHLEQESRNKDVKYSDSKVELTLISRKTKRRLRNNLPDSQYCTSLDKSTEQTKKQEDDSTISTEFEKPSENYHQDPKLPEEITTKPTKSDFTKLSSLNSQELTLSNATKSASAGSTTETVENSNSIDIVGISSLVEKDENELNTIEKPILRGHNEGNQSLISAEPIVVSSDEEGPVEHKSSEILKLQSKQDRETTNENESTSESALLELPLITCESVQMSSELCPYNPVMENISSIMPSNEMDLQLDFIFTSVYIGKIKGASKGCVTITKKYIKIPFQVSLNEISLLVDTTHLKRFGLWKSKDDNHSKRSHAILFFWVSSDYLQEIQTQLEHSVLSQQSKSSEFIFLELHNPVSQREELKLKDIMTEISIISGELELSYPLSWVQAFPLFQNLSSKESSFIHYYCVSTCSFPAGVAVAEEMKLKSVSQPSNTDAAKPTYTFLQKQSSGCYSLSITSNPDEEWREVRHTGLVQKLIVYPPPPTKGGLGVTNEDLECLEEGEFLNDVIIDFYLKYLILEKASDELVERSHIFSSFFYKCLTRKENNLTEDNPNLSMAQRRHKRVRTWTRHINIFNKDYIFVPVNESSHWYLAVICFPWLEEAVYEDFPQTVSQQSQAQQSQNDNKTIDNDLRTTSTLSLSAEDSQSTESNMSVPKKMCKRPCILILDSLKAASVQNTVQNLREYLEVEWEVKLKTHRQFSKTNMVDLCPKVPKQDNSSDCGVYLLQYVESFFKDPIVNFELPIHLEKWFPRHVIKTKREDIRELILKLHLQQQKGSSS

[7] = decrease of insulin promoter-GFP reporter – imaging, high-content screening, mouse beta cells (AID 1628); type: functional; conditions: MIN6
[8] = molecular target: T4, Sentrin-specific protease 6 (Homo sapiens, UniProt Q9GZR1); type: functional;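 also: Luminescence-based dose-response confirmatory assay of SENP6 inhibition, following up an ultra-high-throughput screen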
T4 sequence (Q9GZR1 whole entry): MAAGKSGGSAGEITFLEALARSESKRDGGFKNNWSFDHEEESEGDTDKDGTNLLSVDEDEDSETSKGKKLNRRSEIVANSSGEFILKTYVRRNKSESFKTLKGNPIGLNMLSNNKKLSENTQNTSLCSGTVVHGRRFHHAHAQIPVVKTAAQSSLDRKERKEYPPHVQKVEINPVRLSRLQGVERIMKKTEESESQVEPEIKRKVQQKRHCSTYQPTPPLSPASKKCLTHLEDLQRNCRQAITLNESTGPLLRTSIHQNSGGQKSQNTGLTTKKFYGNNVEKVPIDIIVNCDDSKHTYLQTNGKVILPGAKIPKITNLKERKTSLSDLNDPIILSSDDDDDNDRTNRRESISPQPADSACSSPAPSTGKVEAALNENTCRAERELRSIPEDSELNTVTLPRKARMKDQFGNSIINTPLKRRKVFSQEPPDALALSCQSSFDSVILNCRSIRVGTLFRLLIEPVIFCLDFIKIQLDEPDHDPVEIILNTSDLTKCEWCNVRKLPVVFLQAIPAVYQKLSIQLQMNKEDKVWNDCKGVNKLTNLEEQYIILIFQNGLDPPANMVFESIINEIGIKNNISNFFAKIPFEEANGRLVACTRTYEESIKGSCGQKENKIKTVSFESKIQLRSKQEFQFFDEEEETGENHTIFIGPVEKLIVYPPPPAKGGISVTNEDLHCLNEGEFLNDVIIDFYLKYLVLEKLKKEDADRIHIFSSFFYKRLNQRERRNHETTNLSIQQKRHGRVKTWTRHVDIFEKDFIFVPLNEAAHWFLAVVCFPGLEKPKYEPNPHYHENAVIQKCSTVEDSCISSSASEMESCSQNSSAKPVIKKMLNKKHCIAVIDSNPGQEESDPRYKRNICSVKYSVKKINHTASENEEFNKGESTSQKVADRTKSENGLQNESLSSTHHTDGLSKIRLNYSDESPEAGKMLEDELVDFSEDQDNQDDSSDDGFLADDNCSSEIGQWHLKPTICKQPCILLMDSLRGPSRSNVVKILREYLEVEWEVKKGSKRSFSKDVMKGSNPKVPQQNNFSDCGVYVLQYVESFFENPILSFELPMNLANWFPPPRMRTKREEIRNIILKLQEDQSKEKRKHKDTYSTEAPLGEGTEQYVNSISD

[9] = molecular target: T5, Sentrin-specific protease 8 (Homo sapiens, UniProt Q96LD8); type: functional;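 also: luminescence read-out of SENP8 inhibition, dose-response confirmation following an ultra-high-throughput screen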
T5 sequence (Q96LD8 whole entry): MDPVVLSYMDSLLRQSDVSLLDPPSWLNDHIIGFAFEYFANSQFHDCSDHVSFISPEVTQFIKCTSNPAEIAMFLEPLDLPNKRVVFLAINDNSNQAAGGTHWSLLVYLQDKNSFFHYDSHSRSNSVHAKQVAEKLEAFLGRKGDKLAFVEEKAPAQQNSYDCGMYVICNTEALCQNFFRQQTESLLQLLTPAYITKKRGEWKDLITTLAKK

[10] = tested on: HEK293; test: cells; type: functional, cell-based; conditions: Homo sapiens
[11] = molecular target: Nuclear receptor subfamily 0 group B member 1 (Homo sapiens, UniProt P51843); test: Luminescence-based cell-based high throughput dose response assay for inhibitors of the orphan nuclear receptor subfamily 0, group B, member 1 (DAX1; NR0B1). [Related pubchem assays (depositor defined):AID504766, AID504790]; type: functional
[12] = reduced cellular PGC1a acetyl-lysine signal – cell-based, cherry-picked samples, dose response (AID 720514); type: functional;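 also: potency may reflect raised or lowered acetylation signal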
[13] = tested on: A-375; test: MITF: Counter assay: A375 proliferation Measured in Cell-Based System Using Plate Reader - 2084-03_Inhibitor_Dose_DryPowder_Activity. [Related pubchem assays (depositor defined):AID488944]; type: functional; conditions: Homo sapiens
[14] = molecular target: T6, Microphthalmia-associated transcription factor (Homo sapiens, UniProt O75030); test: reducers of TRPM1 reporter luminescence, concentration series – cell-based, SK-MEL-5, cherry-picked, set 3, MITF inhibitor project, dose response (AID 493073); type: functional;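 also: SK-MEL-5 melanoma cells with luciferase driven by the MITF target TRPM1 promoter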
T6 sequence (O75030 whole entry): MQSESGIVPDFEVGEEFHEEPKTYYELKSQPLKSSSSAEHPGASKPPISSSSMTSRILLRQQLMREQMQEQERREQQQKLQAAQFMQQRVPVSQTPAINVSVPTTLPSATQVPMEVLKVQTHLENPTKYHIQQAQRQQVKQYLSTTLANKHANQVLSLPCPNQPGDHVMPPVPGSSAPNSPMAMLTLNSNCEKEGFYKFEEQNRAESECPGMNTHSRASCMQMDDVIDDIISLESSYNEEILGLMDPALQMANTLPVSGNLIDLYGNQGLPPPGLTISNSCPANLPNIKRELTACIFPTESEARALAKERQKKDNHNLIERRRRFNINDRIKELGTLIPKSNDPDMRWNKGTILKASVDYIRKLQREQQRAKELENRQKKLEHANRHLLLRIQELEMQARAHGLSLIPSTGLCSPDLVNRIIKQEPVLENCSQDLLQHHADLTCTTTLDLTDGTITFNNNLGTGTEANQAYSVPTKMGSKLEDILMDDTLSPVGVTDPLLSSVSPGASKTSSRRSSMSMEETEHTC

T1 sequence (P49327 whole entry): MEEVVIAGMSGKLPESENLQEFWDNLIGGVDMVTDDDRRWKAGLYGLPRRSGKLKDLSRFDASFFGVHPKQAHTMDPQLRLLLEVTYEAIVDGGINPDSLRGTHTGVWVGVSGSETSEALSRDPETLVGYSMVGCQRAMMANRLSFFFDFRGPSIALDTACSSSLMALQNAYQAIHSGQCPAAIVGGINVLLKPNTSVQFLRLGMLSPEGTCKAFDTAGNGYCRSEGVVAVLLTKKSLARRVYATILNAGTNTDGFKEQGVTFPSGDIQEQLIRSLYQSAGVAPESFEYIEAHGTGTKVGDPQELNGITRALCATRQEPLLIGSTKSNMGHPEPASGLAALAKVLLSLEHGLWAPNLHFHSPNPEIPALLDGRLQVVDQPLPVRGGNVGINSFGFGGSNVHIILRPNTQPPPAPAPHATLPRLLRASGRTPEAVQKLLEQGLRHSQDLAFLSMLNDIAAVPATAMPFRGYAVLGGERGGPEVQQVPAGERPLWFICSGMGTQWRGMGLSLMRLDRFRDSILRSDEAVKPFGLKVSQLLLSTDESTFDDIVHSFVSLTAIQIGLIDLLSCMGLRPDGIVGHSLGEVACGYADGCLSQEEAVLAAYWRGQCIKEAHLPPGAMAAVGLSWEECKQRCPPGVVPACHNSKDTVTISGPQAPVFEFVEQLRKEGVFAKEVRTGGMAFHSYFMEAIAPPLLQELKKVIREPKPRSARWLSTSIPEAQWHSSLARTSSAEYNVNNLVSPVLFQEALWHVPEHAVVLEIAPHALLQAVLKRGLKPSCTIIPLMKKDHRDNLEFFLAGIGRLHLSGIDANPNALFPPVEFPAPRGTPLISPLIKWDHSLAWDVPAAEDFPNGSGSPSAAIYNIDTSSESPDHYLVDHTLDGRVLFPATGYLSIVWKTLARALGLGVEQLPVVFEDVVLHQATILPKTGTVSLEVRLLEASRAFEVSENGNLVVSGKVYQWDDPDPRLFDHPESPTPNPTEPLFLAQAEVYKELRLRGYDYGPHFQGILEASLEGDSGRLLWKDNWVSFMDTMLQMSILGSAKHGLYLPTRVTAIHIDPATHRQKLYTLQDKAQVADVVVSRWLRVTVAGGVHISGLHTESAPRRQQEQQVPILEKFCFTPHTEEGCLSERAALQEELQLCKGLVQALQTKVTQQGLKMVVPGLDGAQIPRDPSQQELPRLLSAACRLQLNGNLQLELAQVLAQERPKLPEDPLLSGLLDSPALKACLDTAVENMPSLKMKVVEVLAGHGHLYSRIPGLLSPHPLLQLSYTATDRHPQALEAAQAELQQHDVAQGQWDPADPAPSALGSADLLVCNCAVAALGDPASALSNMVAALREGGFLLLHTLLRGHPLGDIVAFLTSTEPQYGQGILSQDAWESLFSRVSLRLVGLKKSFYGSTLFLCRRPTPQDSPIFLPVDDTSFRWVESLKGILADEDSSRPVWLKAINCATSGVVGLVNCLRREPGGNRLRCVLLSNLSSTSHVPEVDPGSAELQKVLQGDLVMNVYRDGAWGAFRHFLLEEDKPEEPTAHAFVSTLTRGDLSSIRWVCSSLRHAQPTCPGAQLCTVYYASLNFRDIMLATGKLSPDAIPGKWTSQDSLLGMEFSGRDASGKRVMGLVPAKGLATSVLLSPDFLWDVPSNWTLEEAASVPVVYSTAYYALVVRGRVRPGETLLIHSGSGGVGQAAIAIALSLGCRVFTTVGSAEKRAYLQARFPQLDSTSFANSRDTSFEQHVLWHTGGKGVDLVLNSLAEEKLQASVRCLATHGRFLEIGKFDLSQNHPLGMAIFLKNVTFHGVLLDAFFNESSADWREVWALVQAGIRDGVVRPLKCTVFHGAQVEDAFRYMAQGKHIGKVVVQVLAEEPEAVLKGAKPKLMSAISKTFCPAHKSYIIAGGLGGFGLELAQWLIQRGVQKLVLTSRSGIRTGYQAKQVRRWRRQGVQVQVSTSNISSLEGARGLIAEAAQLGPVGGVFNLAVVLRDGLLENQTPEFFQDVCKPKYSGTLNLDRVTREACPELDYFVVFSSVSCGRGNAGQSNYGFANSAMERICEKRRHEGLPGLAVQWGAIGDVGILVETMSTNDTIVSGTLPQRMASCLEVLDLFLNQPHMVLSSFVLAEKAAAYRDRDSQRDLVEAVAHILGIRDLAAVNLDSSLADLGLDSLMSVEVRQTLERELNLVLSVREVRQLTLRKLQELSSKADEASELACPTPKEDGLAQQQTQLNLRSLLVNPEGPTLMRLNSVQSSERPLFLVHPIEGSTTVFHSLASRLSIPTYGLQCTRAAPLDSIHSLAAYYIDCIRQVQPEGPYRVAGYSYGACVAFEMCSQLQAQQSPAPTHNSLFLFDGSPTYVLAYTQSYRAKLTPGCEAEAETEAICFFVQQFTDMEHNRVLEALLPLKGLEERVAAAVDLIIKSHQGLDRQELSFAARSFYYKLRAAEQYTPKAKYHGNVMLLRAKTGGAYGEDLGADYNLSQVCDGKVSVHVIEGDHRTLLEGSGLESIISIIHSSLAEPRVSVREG
Nuclear receptor subfamily 0 group B member 1, sequence (P51843 whole entry): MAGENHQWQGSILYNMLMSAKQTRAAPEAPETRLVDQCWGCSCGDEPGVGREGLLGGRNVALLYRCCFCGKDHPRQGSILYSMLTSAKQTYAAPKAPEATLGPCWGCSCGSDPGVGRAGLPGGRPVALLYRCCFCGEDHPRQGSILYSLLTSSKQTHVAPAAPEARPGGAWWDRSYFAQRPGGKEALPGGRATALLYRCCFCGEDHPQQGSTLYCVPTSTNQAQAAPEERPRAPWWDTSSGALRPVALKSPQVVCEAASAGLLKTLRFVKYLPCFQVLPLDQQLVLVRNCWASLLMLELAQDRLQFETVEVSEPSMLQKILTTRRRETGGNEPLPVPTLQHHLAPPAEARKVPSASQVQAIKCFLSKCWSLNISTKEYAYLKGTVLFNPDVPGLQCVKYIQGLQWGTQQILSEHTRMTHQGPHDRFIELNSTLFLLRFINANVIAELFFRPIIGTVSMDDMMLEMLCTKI

## O=C(Nc1ccc(OC(F)(F)F)cc1)Nc1cccc([N+](=O)[O-])c1
[1]
  IC50: 6.74 µM (active)
[2]
  AC50: 2.8 µM (active)
[3]
  IC50: 89.9 µM (active)
[4]
  IC50: 1.27 µM (active)
[5]
  IC50: 6.14 µM (active)
[6]
  IC50: 8.57 µM (active)
[7]
  IC50: 1.42 µM (active)
[8]
  IC50: > 100 µM (inactive)
[9]
  IC50: > 100 µM (inactive)

## CCCCN(C(C)=O)C1CC(=O)N(c2ccc(OCCC)cc2)C1=O (centres undefined)
[10]
  IC50: > 67.5 µM (inactive)
[11]
  IC50: > 67.5 µM (inactive)

## Cc1cccc(NC(=O)CNC(=O)Cn2ncc(Cl)c(Cl)c2=O)c1C
[12]
  AC50: 6.82 µM (active)
[13]
  AC50: 20.5 µM (active)
[14]
  AC50: 13.4 µM (active)

From ChEMBL document CHEMBL1201862, “PubChem BioAssay data set” (2004)
